Reference: ChEMBL document CHEMBL2429729, “Synthesis, biological evaluation, and molecular modeling of (E)-2-aryl-5-styryl-1,3,4-oxadiazole derivatives as acetylcholine esterase inhibitors” (Med Chem Res, 2013)

Biological target: Acetylcholinesterase (Electrophorus electricus, UniProt O42275)
Experiment: Inhibition of electric eel AChE using acetylthiocholine as substrate incubated for 20 mins prior to substrate addition measured every 30 secs for 4 mins by Ellman's method

Sequence of Acetylcholinesterase (O42275 whole entry): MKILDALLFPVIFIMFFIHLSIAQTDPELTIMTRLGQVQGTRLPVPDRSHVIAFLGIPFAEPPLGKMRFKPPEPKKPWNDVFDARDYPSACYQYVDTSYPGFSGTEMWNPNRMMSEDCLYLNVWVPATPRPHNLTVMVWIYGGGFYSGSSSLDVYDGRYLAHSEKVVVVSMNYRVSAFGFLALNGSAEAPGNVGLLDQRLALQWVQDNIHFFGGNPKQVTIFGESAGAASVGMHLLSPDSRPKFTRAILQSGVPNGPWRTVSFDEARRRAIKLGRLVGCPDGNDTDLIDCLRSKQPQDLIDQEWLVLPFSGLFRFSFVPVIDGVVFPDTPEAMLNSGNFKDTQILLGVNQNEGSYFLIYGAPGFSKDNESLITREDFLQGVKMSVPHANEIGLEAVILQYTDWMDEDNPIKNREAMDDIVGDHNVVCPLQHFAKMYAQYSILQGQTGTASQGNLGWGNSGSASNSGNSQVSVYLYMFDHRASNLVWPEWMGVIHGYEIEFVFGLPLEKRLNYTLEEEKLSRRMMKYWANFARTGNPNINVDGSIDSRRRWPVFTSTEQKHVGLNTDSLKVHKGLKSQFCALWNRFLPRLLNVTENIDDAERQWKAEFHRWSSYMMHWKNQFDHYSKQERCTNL

| Structure (SMILES) | IC50 |
| --- | --- |
| COc1cc(/C=C/c2nnc(-c3cccnc3)o2)cc(OC)c1OC | 65 µM |
| COc1cc(/C=C/c2nnc(-c3cncc(Br)c3)o2)cc(OC)c1OC | 62.8 µM |
| COc1ccc(-c2nnc(/C=C/c3cc(OC)c(OC)c(OC)c3)o2)cc1 | 61.2 µM |
| O=[N+]([O-])c1cccc(-c2nnc(/C=C/c3ccc4c(c3)OCO4)o2)c1 | 49.4 µM |
| Clc1ccccc1-c1nnc(/C=C/c2ccc3c(c2)OCO3)o1 | 47.4 µM |
| O=[N+]([O-])c1ccc(-c2nnc(/C=C/c3ccc4c(c3)OCO4)o2)cc1 | 37.6 µM |
| COc1cc(-c2nnc(/C=C/c3ccc4c(c3)OCO4)o2)cc(OC)c1OC | 48.6 µM |
| COc1ccc(-c2nnc(/C=C/c3ccc4c(c3)OCO4)o2)cc1OC | 40.5 µM |
| Clc1ccc(-c2nnc(/C=C/c3ccc4c(c3)OCO4)o2)c(Cl)c1 | 50.3 µM |
| Fc1ccc(-c2nnc(/C=C/c3ccc4c(c3)OCO4)o2)cc1Cl | 49.6 µM |
| Brc1cncc(-c2nnc(/C=C/c3ccc4c(c3)OCO4)o2)c1 | 52.5 µM |
| C(=C\c1nnc(-c2ccccc2)o1)/c1ccc2c(c1)OCO2 | 50.1 µM |
| Brc1ccccc1-c1nnc(/C=C/c2ccc3c(c2)OCO3)o1 | 40.2 µM |
| Fc1ccc(-c2nnc(/C=C/c3ccc4c(c3)OCO4)o2)c(Cl)c1 | 19.6 µM |
| Clc1ncccc1-c1nnc(/C=C/c2ccc3c(c2)OCO3)o1 | 54.3 µM |
| Cc1ccc(-c2nnc(/C=C/c3ccc4c(c3)OCO4)o2)cc1 | 45.3 µM |
| C(=C\c1nnc(-c2cccnc2)o1)/c1ccc2c(c1)OCO2 | 48.5 µM |
| COc1ccc(-c2nnc(/C=C/c3ccc4c(c3)OCO4)o2)cc1 | 42.8 µM |
| COc1cc(/C=C/c2nnc(-c3ccccc3)o2)cc(OC)c1OC | 24.9 µM |
| COc1cc(/C=C/c2nnc(-c3ccc(C)cc3)o2)cc(OC)c1OC | 60.2 µM |
| COc1cc(/C=C/c2nnc(-c3ccc(Cl)cc3Cl)o2)cc(OC)c1OC | 62.2 µM |
| COc1cc(/C=C/c2nnc(-c3cccnc3Cl)o2)cc(OC)c1OC | 61.2 µM |
| COc1cc(/C=C/c2nnc(-c3ccccc3Br)o2)cc(OC)c1OC | 64.9 µM |
| COc1cc(/C=C/c2nnc(-c3cc4ccccc4o3)o2)cc(OC)c1OC | 60.4 µM |
| COc1cc(/C=C/c2nnc(-c3ccco3)o2)cc(OC)c1OC | 13.7 µM |
| COc1cc(/C=C/c2nnc(-c3ccc([N+](=O)[O-])cc3)o2)cc(OC)c1OC | 49 µM |
| COc1cc(/C=C/c2nnc(-c3cc(OC)c(OC)c(OC)c3)o2)cc(OC)c1OC | 61.5 µM |
| COc1cc(/C=C/c2nnc(-c3cccc([N+](=O)[O-])c3)o2)cc(OC)c1OC | 65.8 µM |
| COc1cc(/C=C/c2nnc(-c3ccccc3Cl)o2)cc(OC)c1OC | 58.1 µM |
| COc1cc(/C=C/c2nnc(-c3ccc(F)cc3Cl)o2)cc(OC)c1OC | 60.2 µM |
